In ChEMBL document CHEMBL1201862, “PubChem BioAssay data set” (2004):
Activity calls are given as the source filed them.

What was measured:
NS3 = NS3 (Hepatitis C virus, UniProt A3EZJ3); test: PubChem AID 2173; parameters: species or system Hepacivirus hominis
[1] = biological target: Lysosomal acid glucosylceramidase (Homo sapiens, UniProt P04062); test: Dose response cell-based high throughput screening assay to identify enhancers of beta-glucosidase activity. [Related pubchem assays: 784 ]; type: functional
X-box-binding protein 1 = X-box-binding protein 1 (Homo sapiens, UniProt P17861); type: functional, Cricetulus griseus;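 note: confirmatory dose-response counter-screen serving a CHOP assay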
[2] = cytotoxicity in HEK-293T cells, dose response, cytotoxicity control for TCR NF-kB inhibitor project, luminescence, T-cell screen hits (AID 489026); type: functional, cell-based;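 note: cells exposed to compound about 14 hours before the viability readout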
J774.A1 = test: Confirmation of image-based Screening Assay for Inhibitors of Phagocytosis. [Related pubchem assays (depositor defined):AID1029, AID1643]; type: functional, cell-based; conditions: Mus musculus
[3] = biological target: Peroxisome proliferator-activated receptor gamma/Nuclear receptor coactivator 3 (Homo sapiens, UniProt P37231); type: functional;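 note: agonist potency for raising coactivator recruitment to the receptor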
[4] = biological target: Peroxisome proliferator-activated receptor gamma/Nuclear receptor coactivator 2 (Homo sapiens, UniProt P37231); type: functional;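 note: agonist potency for raising coactivator recruitment to the receptor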
[5] = biological target: Peroxisome proliferator-activated receptor gamma/Nuclear receptor coactivator 1 (Homo sapiens, UniProt P37231); type: functional;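 note: agonist potency as compounds enhance coactivator SRC-1 recruitment to PPARgamma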
Chain of Peroxisome proliferator-activated receptor gamma/Nuclear receptor coactivator 1 (P37231 whole entry): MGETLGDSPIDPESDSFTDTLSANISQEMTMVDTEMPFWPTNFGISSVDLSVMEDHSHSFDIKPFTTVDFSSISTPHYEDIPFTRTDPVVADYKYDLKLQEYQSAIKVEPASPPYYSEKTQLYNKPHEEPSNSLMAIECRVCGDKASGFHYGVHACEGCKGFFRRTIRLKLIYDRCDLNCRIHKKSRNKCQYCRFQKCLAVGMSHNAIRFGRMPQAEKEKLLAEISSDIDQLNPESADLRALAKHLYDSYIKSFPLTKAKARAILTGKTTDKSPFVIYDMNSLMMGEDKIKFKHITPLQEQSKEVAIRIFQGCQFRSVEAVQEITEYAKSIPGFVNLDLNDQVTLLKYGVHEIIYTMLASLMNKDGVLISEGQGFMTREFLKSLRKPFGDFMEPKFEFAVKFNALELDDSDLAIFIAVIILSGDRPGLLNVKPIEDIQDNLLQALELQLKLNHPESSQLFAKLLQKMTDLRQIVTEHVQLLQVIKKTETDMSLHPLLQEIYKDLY
Chain of Peroxisome proliferator-activated receptor gamma/Nuclear receptor coactivator 1 (Q15788 whole entry, further chain): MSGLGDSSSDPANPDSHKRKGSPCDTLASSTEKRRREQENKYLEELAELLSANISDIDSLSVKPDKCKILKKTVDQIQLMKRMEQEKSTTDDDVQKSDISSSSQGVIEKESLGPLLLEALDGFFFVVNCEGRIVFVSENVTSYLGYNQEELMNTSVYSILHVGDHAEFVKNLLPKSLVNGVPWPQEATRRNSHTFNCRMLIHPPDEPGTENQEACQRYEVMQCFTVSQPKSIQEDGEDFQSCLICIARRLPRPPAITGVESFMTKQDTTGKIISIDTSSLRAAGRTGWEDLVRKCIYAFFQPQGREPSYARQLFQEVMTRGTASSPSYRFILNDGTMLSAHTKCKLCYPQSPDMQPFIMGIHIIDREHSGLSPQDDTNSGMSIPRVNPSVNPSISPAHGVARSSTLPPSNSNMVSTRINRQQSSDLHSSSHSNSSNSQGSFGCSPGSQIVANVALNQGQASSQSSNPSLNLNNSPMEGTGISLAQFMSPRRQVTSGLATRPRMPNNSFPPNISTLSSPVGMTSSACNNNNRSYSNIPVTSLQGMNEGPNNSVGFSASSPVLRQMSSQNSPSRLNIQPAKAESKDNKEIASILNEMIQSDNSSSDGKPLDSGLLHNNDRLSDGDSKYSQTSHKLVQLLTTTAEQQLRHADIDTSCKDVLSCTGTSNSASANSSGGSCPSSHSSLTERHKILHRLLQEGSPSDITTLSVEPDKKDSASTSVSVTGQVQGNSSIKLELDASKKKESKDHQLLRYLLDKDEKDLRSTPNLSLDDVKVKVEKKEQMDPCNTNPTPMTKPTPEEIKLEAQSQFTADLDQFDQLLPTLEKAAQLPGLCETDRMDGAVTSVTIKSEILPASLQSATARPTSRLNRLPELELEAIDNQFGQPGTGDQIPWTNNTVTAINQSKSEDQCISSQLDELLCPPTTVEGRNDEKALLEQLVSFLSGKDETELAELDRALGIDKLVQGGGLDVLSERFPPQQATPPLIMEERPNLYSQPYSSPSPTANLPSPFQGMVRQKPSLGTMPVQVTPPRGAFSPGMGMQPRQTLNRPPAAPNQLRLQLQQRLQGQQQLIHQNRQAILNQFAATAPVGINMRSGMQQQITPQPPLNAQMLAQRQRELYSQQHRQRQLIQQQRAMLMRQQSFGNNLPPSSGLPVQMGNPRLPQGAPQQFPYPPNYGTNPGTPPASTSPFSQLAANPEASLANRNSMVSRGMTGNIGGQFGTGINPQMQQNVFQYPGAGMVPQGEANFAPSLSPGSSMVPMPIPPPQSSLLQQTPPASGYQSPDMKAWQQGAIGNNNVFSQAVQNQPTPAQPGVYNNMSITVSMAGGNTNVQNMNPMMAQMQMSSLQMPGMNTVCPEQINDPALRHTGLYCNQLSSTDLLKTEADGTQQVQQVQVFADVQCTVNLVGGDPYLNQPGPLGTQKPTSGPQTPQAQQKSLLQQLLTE

Chain of Peroxisome proliferator-activated receptor gamma/Nuclear receptor coactivator 2 (P37231 whole entry): as the sequence (P37231 whole entry) above
Chain of Peroxisome proliferator-activated receptor gamma/Nuclear receptor coactivator 2 (Q15596 whole entry, further chain): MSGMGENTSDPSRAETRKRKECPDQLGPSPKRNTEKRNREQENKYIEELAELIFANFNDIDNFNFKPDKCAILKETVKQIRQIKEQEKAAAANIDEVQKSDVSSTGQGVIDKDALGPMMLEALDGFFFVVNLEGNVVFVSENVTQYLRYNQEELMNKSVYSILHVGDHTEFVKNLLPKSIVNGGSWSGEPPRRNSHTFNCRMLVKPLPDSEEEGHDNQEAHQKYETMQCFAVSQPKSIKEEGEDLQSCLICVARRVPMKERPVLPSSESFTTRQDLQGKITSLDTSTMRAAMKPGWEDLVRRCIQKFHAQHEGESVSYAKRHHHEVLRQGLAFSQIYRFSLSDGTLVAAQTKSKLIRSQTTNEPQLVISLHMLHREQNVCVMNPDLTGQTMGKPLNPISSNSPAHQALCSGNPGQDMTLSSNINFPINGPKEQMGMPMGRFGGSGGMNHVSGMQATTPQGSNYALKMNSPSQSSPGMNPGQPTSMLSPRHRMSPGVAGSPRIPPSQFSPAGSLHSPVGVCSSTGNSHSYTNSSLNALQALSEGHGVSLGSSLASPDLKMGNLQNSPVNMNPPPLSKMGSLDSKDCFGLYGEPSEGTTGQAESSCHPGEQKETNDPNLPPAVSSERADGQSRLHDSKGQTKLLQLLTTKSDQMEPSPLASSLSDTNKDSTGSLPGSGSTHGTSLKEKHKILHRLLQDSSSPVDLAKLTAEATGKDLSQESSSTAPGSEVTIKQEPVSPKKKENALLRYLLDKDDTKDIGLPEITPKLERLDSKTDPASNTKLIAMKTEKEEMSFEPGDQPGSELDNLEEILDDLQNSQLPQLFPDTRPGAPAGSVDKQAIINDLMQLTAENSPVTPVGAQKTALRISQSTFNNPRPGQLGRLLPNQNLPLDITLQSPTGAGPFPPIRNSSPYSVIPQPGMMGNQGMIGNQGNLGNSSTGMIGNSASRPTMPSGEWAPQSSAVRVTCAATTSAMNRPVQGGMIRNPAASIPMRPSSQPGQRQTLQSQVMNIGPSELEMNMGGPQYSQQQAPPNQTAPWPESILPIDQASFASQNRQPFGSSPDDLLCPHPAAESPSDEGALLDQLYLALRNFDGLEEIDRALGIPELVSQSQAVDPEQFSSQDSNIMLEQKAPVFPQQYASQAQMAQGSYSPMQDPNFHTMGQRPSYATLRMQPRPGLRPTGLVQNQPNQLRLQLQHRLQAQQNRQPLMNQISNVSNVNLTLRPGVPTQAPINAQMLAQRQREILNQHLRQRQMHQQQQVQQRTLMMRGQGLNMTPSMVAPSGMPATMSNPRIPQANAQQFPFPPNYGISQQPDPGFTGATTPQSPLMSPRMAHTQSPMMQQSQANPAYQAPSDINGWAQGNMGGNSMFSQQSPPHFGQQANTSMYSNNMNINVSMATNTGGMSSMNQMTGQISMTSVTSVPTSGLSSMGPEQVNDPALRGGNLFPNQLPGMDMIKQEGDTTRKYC
Chain of Lysosomal acid glucosylceramidase (P04062 whole entry): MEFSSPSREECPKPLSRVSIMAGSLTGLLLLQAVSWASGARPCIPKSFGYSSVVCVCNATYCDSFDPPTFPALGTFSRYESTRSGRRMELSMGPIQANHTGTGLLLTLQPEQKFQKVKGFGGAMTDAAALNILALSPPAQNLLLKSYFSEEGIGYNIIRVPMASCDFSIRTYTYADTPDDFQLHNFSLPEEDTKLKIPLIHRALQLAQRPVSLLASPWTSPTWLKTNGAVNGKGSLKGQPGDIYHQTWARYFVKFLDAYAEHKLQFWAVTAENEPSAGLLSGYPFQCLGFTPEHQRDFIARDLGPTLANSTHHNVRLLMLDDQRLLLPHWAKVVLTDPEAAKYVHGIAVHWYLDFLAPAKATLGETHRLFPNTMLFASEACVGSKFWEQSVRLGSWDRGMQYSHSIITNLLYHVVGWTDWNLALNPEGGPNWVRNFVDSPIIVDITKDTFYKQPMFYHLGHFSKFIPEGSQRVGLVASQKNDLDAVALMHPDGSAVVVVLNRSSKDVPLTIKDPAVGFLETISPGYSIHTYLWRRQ
Chain of NS3 (A3EZJ3 whole entry): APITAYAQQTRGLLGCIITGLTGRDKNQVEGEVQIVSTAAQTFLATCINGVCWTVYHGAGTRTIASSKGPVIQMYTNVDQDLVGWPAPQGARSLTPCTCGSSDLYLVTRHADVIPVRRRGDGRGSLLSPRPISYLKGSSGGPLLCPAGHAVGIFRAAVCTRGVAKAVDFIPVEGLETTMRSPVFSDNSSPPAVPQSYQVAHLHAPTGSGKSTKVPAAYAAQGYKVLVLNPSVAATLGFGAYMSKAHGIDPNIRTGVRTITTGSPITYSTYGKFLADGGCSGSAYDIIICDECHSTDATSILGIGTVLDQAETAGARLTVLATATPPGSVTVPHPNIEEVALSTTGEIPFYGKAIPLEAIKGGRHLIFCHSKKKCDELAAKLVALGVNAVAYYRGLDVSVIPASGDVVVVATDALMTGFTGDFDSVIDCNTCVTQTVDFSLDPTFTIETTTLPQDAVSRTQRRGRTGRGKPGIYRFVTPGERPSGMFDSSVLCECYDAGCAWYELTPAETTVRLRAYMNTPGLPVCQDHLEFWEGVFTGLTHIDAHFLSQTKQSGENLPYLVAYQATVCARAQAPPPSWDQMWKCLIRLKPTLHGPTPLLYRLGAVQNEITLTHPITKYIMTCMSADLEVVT

With `Cc1cc2cc(C(c3nnnn3Cc3ccco3)N3CCc4ccccc4C3)c(O)nc2cc1C` (stereo not drawn) as the molecule, how does the IC50 (NS3) read?
The IC50 was > 109 µM (not active).

Which EC50 [1] does the source give for `CC(OC(=O)c1nsc(Cl)c1Cl)C(=O)NCc1cccs1` (stereo not drawn) here?
The EC50 was > 50 µM (not active).

Which “Absolute IC50 (XBP1)” value (X-box-binding protein 1) does the source give for `CCC(C)Sc1nc2c(c(=O)[nH]c(=O)n2C)n1Cc1ccc(Cl)cc1` (stereo not drawn) here?
Its value is 10 µM.

For `CC(C)Oc1ccccc1C1CC(=O)Nc2cc3c(cc21)OCO3` (stereo not drawn), which IC50 [2] is on record?
The IC50 was > 80 µM (inactive).

And the IC50 (J774.A1)?
The IC50 was > 25 µM (inactive).

With `CCOC(=O)c1c(NC(=O)CSc2nc(C)cc(C)c2C#N)sc(C(C)=O)c1C` as the molecule, how does the EC50 [3] read?
The EC50 was > 79.4 µM (not active).

And the EC50 [4]?
The EC50 was > 79.4 µM (not active).

What about the EC50 [5] of the same molecule?
The EC50 was > 79.4 µM (not active).
